Reference: patent US20240246964A1 (Arbutus Biopharma Corporation, priority 2021, published 2024)

Biological target: human PD-L1 (Homo sapiens (Human), UniProt Q9NZQ7)
Experiment: T cell activation luciferase reporter cell culture system (T Cell Activation Assay)
Format: cell-based
Conditions: luciferase reporter assay; PD-L1 aAPC/CHO-K1 cells with PD-1 effector Jurkat T cells

Sequence of human PD-L1 (Q9NZQ7 19-290): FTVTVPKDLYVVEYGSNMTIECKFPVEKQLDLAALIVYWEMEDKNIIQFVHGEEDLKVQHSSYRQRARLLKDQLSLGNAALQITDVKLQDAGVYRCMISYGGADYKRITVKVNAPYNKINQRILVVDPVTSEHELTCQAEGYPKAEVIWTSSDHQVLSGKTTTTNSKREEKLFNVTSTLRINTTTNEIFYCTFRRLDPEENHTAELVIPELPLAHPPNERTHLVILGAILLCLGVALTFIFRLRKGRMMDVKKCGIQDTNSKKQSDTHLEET

SMILES	EC50
COc1cc(-c2nccc(-c3cccc(-c4ccc(CNC5CCN(CC(F)F)CC5)c(OC)n4)c3Cl)c2Cl)ccc1CNC1CCN(CC(F)F)CC1 [Example 420, N-((6-(2-Chloro-3-(3-chloro-2-(4-(((1-(2,2-difluoroethyl)piperidin-4-yl)amino)methyl)-3-methoxyphenyl)pyridin-4-yl)phenyl)-2-methoxypyridin-3-yl)methyl)-1-(2,2-difluoroethyl)piperidin-4-amine]	42.6 nM
COc1cc(-c2nccc(-c3cccc(-c4ccc(CN5CCC(NC(C)=O)CC5)c(OC)n4)c3Cl)c2Cl)ccc1CNC1CCOCC1 [Example 432, N-(1-((6-(2-Chloro-3-(3-chloro-2-(3-methoxy-4-(((tetrahydro-2H-pyran-4-yl)amino)methyl)phenyl)pyridin-4-yl)phenyl)-2-methoxypyridin-3-yl)methyl)piperidin-4-yl)acetamide]	52.1 nM
COc1cc(-c2nccc(-c3cccc(-c4ccc(CN5CC6(CNC(=O)C6)C5)c(OC)n4)c3Cl)c2C#N)ccc1CN1CC2(CNC(=O)C2)C1 [Example 433, 4-(2-Chloro-3-(6-methoxy-5-((7-oxo-2,6-diazaspiro[3.4]octan-2-yl)methyl)pyridin-2-yl)phenyl)-2-(3-methoxy-4-((7-oxo-2,6-diazaspiro[3.4]octan-2-yl)methyl)phenyl)nicotinonitrile]	39.9 nM
COc1cc(-c2nccc(-c3cccc(-c4ccc(CNC5CCOCC5)c(OC)n4)c3Cl)c2C#N)ccc1CNC1CCOCC1 [Example 434, 4-(2-Chloro-3-(6-methoxy-5-(((tetrahydro-2H-pyran-4-yl)amino)methyl)pyridin-2-yl)phenyl)-2-(3-methoxy-4-(((tetrahydro-2H-pyran-4-yl)amino)methyl)phenyl)nicotinonitrile]	37.8 nM
COc1cc(-c2nccc(-c3cccc(-c4ccc(CN5CC[C@H](O)C5)c(OC)n4)c3Cl)c2Cl)ccc1CN1CC[C@H](O)C1 [Example 435, (S)-1-((6-(2-Chloro-3-(3-chloro-2-(4-(((S)-3-hydroxypyrrolidin-1-yl)methyl)-3-methoxyphenyl)pyridin-4-yl)phenyl)-2-methoxypyridin-3-yl)methyl)pyrrolidin-3-ol]	9.95 nM
COc1cc(-c2nccc(-c3cccc(-c4ccc(CN(C)C5CCOCC5)c(OC)n4)c3Cl)c2Cl)ccc1CNC1CCN(C(C)=O)CC1 [Example 436, 1-(4-((4-(3-chloro-4-(2-chloro-3-(6-methoxy-5-((methyl(tetrahydro-2H-pyran-4-yl)amino)methyl)pyridin-2-yl)phenyl)pyridin-2-yl)-2-methoxybenzyl)amino)piperidin-1-yl)ethan-1-one]	134 nM
COc1cc(-c2nccc(-c3cccc(-c4ccc(CNC5CCN(CC(F)(F)F)CC5)c(OC)n4)c3Cl)c2Cl)ccc1CNC1CCN(CC(F)(F)F)CC1 [Example 437, N-((6-(2-Chloro-3-(3-chloro-2-(3-methoxy-4-(((1-(2,2,2-trifluoroethyl)piperidin-4-yl)amino)methyl)phenyl)pyridin-4-yl)phenyl)-2-methoxypyridin-3-yl)methyl)-1-(2,2,2-trifluoroethyl)piperidin-4-amine]	157 nM
COc1cc(-c2nccc(-c3cccc(-c4ccc(CNC5CCN(C(=O)CO)CC5)c(OC)n4)c3Cl)c2Cl)ccc1CNC1CCN(C(=O)CO)CC1 [Example 443, 1-(4-(((6-(2-Chloro-3-(3-chloro-2-(4-(((1-(2-hydroxyacetyl)piperidin-4-yl)amino)methyl)-3-methoxyphenyl)pyridin-4-yl)phenyl)-2-methoxypyridin-3-yl)methyl)amino)piperidin-1-yl)-2-hydroxyethan-1-one]	10.5 nM
COc1cc(-c2nccc(-c3cccc(-c4ccc(CNC5CCN(c6ccccn6)CC5)c(OC)n4)c3Cl)c2Cl)ccc1CNC1CCN(c2ccccn2)CC1 [Example 444, N-((6-(2-Chloro-3-(3-chloro-2-(3-methoxy-4-(((1-(pyridin-2-yl)piperidin-4-yl)amino)methyl)phenyl)pyridin-4-yl)phenyl)-2-methoxypyridin-3-yl)methyl)-1-(pyridin-2-yl)piperidin-4-amine]	≥ 10000 nM
COc1cc(-c2nccc(-c3cccc(-c4ccc(CNC5CCN(c6ncccc6Cl)CC5)c(OC)n4)c3Cl)c2Cl)ccc1CNC1CCN(c2ncccc2Cl)CC1 [Example 445, N-((6-(2-Chloro-3-(3-chloro-2-(4-(((1-(3-chloropyridin-2-yl)piperidin-4-yl)amino)methyl)-3-methoxyphenyl)pyridin-4-yl)phenyl)-2-methoxypyridin-3-yl)methyl)-1-(3-chloropyridin-2-yl)piperidin-4-amine]	≥ 10000 nM
COc1cc(-c2nccc(-c3cccc(-c4ccc(CN5CCC(OC)CC5)c(OC)n4)c3Cl)c2Cl)ccc1CN1CCC(OC)CC1 [Example 447, 3-Chloro-4-(2-chloro-3-(6-methoxy-5-((4-methoxypiperidin-1-yl)methyl)pyridin-2-yl)phenyl)-2-(3-methoxy-4-((4-methoxypiperidin-1-yl)methyl)phenyl)pyridine]	61.3 nM
COc1cc(-c2nccc(-c3cccc(-c4ccc(CN[C@H]5CC[C@@H](OC)CC5)c(OC)n4)c3Cl)c2Cl)ccc1CN[C@H]1CC[C@@H](OC)CC1 [Example 448, (1s,4s)-N-((6-(2-Chloro-3-(3-chloro-2-(3-methoxy-4-((((1s,4s)-4-methoxycyclohexyl)amino)methyl)phenyl)pyridin-4-yl)phenyl)-2-methoxypyridin-3-yl)methyl)-4-methoxycyclohexan-1-amine]	76.3 nM
COc1cc(-c2nccc(-c3cccc(-c4ccc(CN5CC6(CNC(=O)C6)C5)c(OC)n4)c3F)c2F)ccc1CN1CC2(CNC(=O)C2)C1 [Example 451, 2-(4-(3-Fluoro-4-(2-fluoro-3-(6-methoxy-5-((7-oxo-2,6-diazaspiro[3.4]octan-2-yl)methyl)pyridin-2-yl)phenyl)pyridin-2-yl)-2-methoxybenzyl)-2,6-diazaspiro[3.4]octan-7-one]	1970 nM
COc1nc(-c2cccc(-c3ccnc(-c4cc(OC)c5nc(CN[C@H]6CC[C@H](O)CC6)cn5c4)c3Cl)c2Cl)ccc1CN[C@H]1CC[C@H](O)CC1 [Example 453, (1r,4r)-4-(((6-(2-Chloro-3-(3-chloro-2-(2-((((1r,4r)-4-hydroxycyclohexyl)amino)methyl)-8-methoxyimidazo[1,2-a]pyridin-6-yl)pyridin-4-yl)phenyl)-2-methoxypyridin-3-yl)methyl)amino)cyclohexan-1-ol]	270 nM
COc1nc(-c2cccc(-c3ccnc(-c4cc(OC)c5nc(CN6CC7(CCC(=O)N7)C6)cn5c4)c3Cl)c2Cl)ccc1CN1CC2(CCC(=O)N2)C1 [Example 454, 2-((6-(2-Chloro-3-(3-chloro-2-(8-methoxy-2-((6-oxo-2,5-diazaspiro[3.4]octan-2-yl)methyl)imidazo[1,2-a]pyridin-6-yl)pyridin-4-yl)phenyl)-2-methoxypyridin-3-yl)methyl)-2,5-diazaspiro[3.4]octan-6-one]	203 nM
COc1nc(-c2cccc(-c3ccnc(-c4cc(OC)c5nc(CN6CC(C)(O)C6)cn5c4)c3Cl)c2Cl)ccc1CN1CC(C)(O)C1 [Example 455, 1-((6-(2-Chloro-3-(3-chloro-2-(2-((3-hydroxy-3-methylazetidin-1-yl)methyl)-8-methoxyimidazo[1,2-a]pyridin-6-yl)pyridin-4-yl)phenyl)-2-methoxypyridin-3-yl)methyl)-3-methylazetidin-3-ol]	174 nM
COc1cc(-c2nccc(-c3cccc(-c4ccc(CNC5CCN(C(=O)C6CCCCC6)CC5)c(OC)n4)c3Cl)c2Cl)ccc1CNC1CCN(C(=O)C2CCCCC2)CC1 [Example 456, (4-(((6-(2-Chloro-3-(3-chloro-2-(4-(((1-(cyclohexanecarbonyl)piperidin-4-yl)amino)methyl)-3-methoxyphenyl)pyridin-4-yl)phenyl)-2-methoxypyridin-3-yl)methyl)amino)piperidin-1-yl)(cyclohexyl)methanone]	291 nM
COc1cc(-c2nccc(-c3cccc(-c4ccc(CN5CCNC(=O)C5)c(OC)n4)c3Cl)c2Cl)ccc1CN1CCNC(=O)C1 [Example 457, 4-((6-(2-Chloro-3-(3-chloro-2-(3-methoxy-4-((3-oxopiperazin-1-yl)methyl)phenyl)pyridin-4-yl)phenyl)-2-methoxypyridin-3-yl)methyl)piperazin-2-one]	≥ 10000 nM
COc1cc(-c2nccc(-c3cccc(-c4ccc(CNC5CCN(C(C)=O)CC5)c(OC)n4)c3Cl)c2Cl)ccc1CN1CCC(O)CC1 [Example 459, 1-(4-(((6-(2-Chloro-3-(3-chloro-2-(4-((4-hydroxypiperidin-1-yl)methyl)-3-methoxyphenyl)pyridin-4-yl)phenyl)-2-methoxypyridin-3-yl)methyl)amino)piperidin-1-yl)ethan-1-one]	33 nM
COc1nc(-c2cccc(-c3ccnc(-c4cc5c(=O)n(CCNCC(=O)O)c(OC)nn5c4)c3Cl)c2Cl)ccc1CNC[C@@H]1CCC(=O)N1 [Example 460, (S)-(2-(6-(3-Chloro-4-(2-chloro-3-(6-methoxy-5-((((5-oxopyrrolidin-2-yl)methyl)amino)methyl)pyridin-2-yl)phenyl)pyridin-2-yl)-2-methoxy-4-oxopyrrolo[2,1-f][1,2,4]triazin-3(4H)-yl)ethyl)glycine]	96.5 nM
COc1cc(-c2nccc(-c3cccc(-c4ccc(CN5CCC(NC(C)=O)CC5)c(OC)n4)c3C)c2C)ccc1CN1CCC(NC(C)=O)CC1 [Example 461, N-(1-((6-(3-(2-(4-((4-Acetamidopiperidin-1-yl)methyl)-3-methoxyphenyl)-3-methylpyridin-4-yl)-2-methylphenyl)-2-methoxypyridin-3-yl)methyl)piperidin-4-yl)acetamide]	≥ 10000 nM
COc1cc(-c2nccc(-c3cccc(-c4ccc(CN[C@H]5CC[C@H](O)CC5)c(OC)n4)c3Cl)c2C)ccc1CN[C@H]1CC[C@H](O)CC1 [Example 463, (1r,4r)-4-(((6-(2-Chloro-3-(2-(4-((((1r,4r)-4-hydroxycyclohexyl)amino)methyl)-3-methoxyphenyl)-3-methylpyridin-4-yl)phenyl)-2-methoxypyridin-3-yl)methyl)amino)cyclohexan-1-ol]	288 nM
